Test results as given in patent US20110306568A1, “COMPOSITION CONTAINING GLUCOSYLGLYCEROL” (priority 2008, published 2011).

Legend:
Type in all cases: cell-based
[1] = tested on: E. coli DSM 1576; test: Viable count of E. coli DSM 1576 in aqueous glucosylglycerol solutions with 5% w/w glucose; settings: for Colony-forming units (CFU/g): 5% w/w glucose, aqueous
[2] = tested on: Aspergillus niger; test: Viable count of mold Aspergillus niger in aqueous glucosylglycerol solution with 3.5% w/w glucose; settings: A. niger; for Colony-forming units (CFU/g): 50% w/w glucosylglycerol, 3.5% w/w glucose, aqueous
Source text: (§1) In addition, a another test was analogously conducted with mold Aspergillus niger and yeast fungi Candida albicans , with an aqueous solution containing 50% w/w of 2-O-α-D glucosylglycerol and 3.5% w/w of glucose being used in this case.

[3] = tested on: Candida albicans; test: Viable count of yeast fungi Candida albicans in aqueous glucosylglycerol solution with 3.5% w/w glucose; settings: C. albicans; for Colony-forming units (CFU/g): 50% w/w glucosylglycerol, 3.5% w/w glucose, aqueous
Source text: as §1

[4] = glucosylglycerol of high concentration

Q: Which results are given for `OCC(CO)O[C@H]1O[C@H](CO)[C@@H](O)[C@H](O)[C@H]1O` [Glucosylglycerol, 2-O-α-D-glucosylglycerol]?
A: Colony-forming units (CFU/g) ([1]; 20% w/w glucosylglycerol, 0 days): 300,000 CFU/g; Colony-forming units (CFU/g) ([1]; 20% w/w glucosylglycerol, 2 days): 280,000 CFU/g; Colony-forming units (CFU/g) ([1]; 20% w/w glucosylglycerol, 7 days): 100,000 CFU/g; Colony-forming units (CFU/g) ([1]; 20% w/w glucosylglycerol, 14 days): 5,000 CFU/g; Colony-forming units (CFU/g) ([1]; 20% w/w glucosylglycerol, 21 days): <100 CFU/g; Colony-forming units (CFU/g) ([1]; 20% w/w glucosylglycerol, 28 days): <100 CFU/g; Colony-forming units (CFU/g) ([1]; 30% w/w glucosylglycerol, 0 days): 300,000 CFU/g; Colony-forming units (CFU/g) ([1]; 30% w/w glucosylglycerol, 2 days): 130,000 CFU/g; Colony-forming units (CFU/g) ([1]; 30% w/w glucosylglycerol, 7 days): <1,000 CFU/g; Colony-forming units (CFU/g) ([1]; 30% w/w glucosylglycerol, 14 days): <100 CFU/g; Colony-forming units (CFU/g) ([1]; 30% w/w glucosylglycerol, 21 days): <100 CFU/g; Colony-forming units (CFU/g) ([1]; 30% w/w glucosylglycerol, 28 days): <100 CFU/g; Colony-forming units (CFU/g) ([1]; 50% w/w glucosylglycerol, 0 days): 300,000 CFU/g; Colony-forming units (CFU/g) ([1]; 50% w/w glucosylglycerol, 2 days): 150,000 CFU/g; Colony-forming units (CFU/g) ([1]; 50% w/w glucosylglycerol, 7 days): <1,000 CFU/g; Colony-forming units (CFU/g) ([1]; 50% w/w glucosylglycerol, 14 days): <100 CFU/g; Colony-forming units (CFU/g) ([1]; 50% w/w glucosylglycerol, 21 days): <100 CFU/g; Colony-forming units (CFU/g) ([1]; 50% w/w glucosylglycerol, 28 days): <100 CFU/g; bactericidal effect [1, 4]: highly bactericidal effects; Colony-forming units (CFU/g) ([2]; 0 days): 750,000 CFU/g; Colony-forming units (CFU/g) ([2]; 2 days): 350,000 CFU/g; Colony-forming units (CFU/g) ([2]; 7 days): 200,000 CFU/g; Colony-forming units (CFU/g) ([2]; 14 days): 170,000 CFU/g; Colony-forming units (CFU/g) ([2]; 21 days): 160,000 CFU/g; Colony-forming units (CFU/g) ([2]; 28 days): 12,000 CFU/g; fungicidal effect [2, 4]: fungicidal effects; Colony-forming units (CFU/g) ([3]; 0 days): 750,000 CFU/g; Colony-forming units (CFU/g) ([3]; 2 days): 320,000 CFU/g; Colony-forming units (CFU/g) ([3]; 7 days): 200,000 CFU/g; Colony-forming units (CFU/g) ([3]; 14 days): 190,000 CFU/g; Colony-forming units (CFU/g) ([3]; 21 days): 120,000 CFU/g; Colony-forming units (CFU/g) ([3]; 28 days): 45,000 CFU/g; fungicidal effect [3, 4]: fungicidal effects
